From ChEMBL document CHEMBL5346951, “Novel H2S-Releasing Bifunctional Antihistamine Molecules with Improved Antipruritic and Reduced Sedative Actions” (J Med Chem, 2023)
Each block holds one compound with its values, some of them ahead of it. Active and inactive are the calls of the source. No cut-off for these calls is given here.

Columns and labels:
Kidney = assay: Release of H2S in mouse kidney homogenate at 10 to 300 uM measured for 10 mins by methylene blue formation assay; assay type: ADME, tissue-based; settings: tissue homogenate, dose 10-300 µM
Mus musculus [1] = assay: Antihistamine effect in mouse assessed as Inhibition of histamine-induced increase vascular leakage in skin tissue at 15 mg/kg, ip pretreated 30 mins before Evans blue injection followed by injected with histamine mouse euthanized and skin excised by Miles assay; assay type: functional, organism-based
Mus musculus [2] = assay: Antipruritic effect in mouse assessed as reduction in histamine-induced itching duration at 15 mg/kg ip pretreated 30 mins before histamine and recorded for 10 mins; assay type: functional, organism-based
[3] = Drug metabolism in mouse assessed as fold increase in plasma HDZ at 50 mg/kg, ip by LC-MS/MS analysis; assay type: ADME, organism-based; settings: in vivo
[4] = Toxicity in histamine-induced mouse itching mouse model assessed as reduction in locomotion at 15 mg/kg ip; assay type: organism-based; settings: in vivo
[5] = Toxicity in mouse assessed as sedative effect by measuring reduction in locomotion at 70 mg/kg ip; assay type: organism-based; settings: in vivo
HUVE = assay: (§1) Antihistamine effect in HUVEC cells assessed as inhibition of histamine-induced tissue factor expression pretreated 30 mins before addition of his measured after 2 hrs after addition of TRIzol by spectrophotometry; assay type: functional, cell-based; settings: Homo sapiens
[6] = as §1; assay type: functional, cell-based; settings: Homo sapiens, HUVE
Mus musculus [7] = assay: Antipruritic effect in mouse assessed as reduction in histamine-induced itching duration at 60 to 120 mg/kg ip pretreated 30 mins before histamine and recorded for 10 mins; assay type: functional; settings: dose 60-120 mg/kg, 0.5 h
[8] = Toxicity in histamine-induced mouse itching mouse model assessed as reduction in locomotion at 60 to 120 mg/kg ip; assay type: organism-based; settings: in vivo, dose 60-120 mg/kg
[9] = Plasma concentration in mouse at 1 mg/kg, ip measured after 30 mins by LC-MS/MS analysis; assay type: ADME, organism-based
Mus musculus [10] = assay: Antipruritic effect in mouse assessed as reduction in PAR-2-induced itching duration at 15 mg/kg ip pretreated 30 mins before histamine and recorded for 10 mins; assay type: functional, organism-based
HepG2 = assay: Release of H2S in human HepG2 cells measured for 24 hrs by lead acetate method; assay type: ADME, cell-based; settings: hepg2, 24 h, dose 0.5-3 mM
Mus musculus [11] = assay: Antipruritic effect in mouse assessed as reduction in histamine-induced itching duration at 3.5 mg/kg ip pretreated 30 mins before histamine and recorded for 10 mins relative to HDZ; assay type: functional, organism-based
Mus musculus [12] = assay: Antipruritic effect in mouse assessed as reduction in histamine-induced itching duration at 20 mg/kg ip pretreated 30 mins before histamine and recorded for 10 mins; assay type: functional, organism-based
Mus musculus [13] = assay: Antihistamine effect in mouse assessed as Inhibition of histamine-induced increase vascular leakage in skin tissue at 50 mg/kg, ip pretreated 30 mins before Evans blue injection followed by injected with histamine mouse euthanized and skin excised by Miles assay; assay type: functional, organism-based
Mus musculus [14] = assay: Antipruritic effect in mouse assessed as reduction in PAR-2-induced itching duration at 50 mg/kg ip pretreated 30 mins before histamine and recorded for 10 mins; assay type: functional, organism-based
Mus musculus [15] = assay: Antipruritic effect in mouse assessed as reduction in histamine-induced itching duration at 50 mg/kg ip pretreated 30 mins before histamine and recorded for 10 mins relative to CET; assay type: functional, organism-based
[16] = Drug metabolism in mouse assessed as fold increase in plasma CET at 50 mg/kg, ip by LC-MS/MS analysis; assay type: ADME, organism-based; settings: in vivo
[17] = Plasma concentration in mouse at 10 mg/kg, ip measured after 30 mins by LC-MS/MS analysis
Mus musculus [18] = assay: Antihistamine effect in mouse assessed as Inhibition of histamine-induced increase vascular leakage in skin tissue at 10 mg/kg, ip pretreated 30 mins before Evans blue injection followed by injected with histamine mouse euthanized and skin excised by Miles assay; assay type: functional, organism-based
Mus musculus [19] = assay: Antipruritic effect in mouse assessed as reduction in PAR-2-induced itching duration at 10 mg/kg ip pretreated 30 mins before histamine and recorded for 10 mins; assay type: functional, organism-based
Mus musculus [20] = assay: Antipruritic effect in mouse assessed as reduction in histamine-induced itching duration at 30 mg/kg ip pretreated 30 mins before histamine and recorded for 10 mins; assay type: functional, organism-based
Mus musculus [21] = assay: Antipruritic effect in mouse assessed as reduction in histamine-induced itching duration at 10 mg/kg ip pretreated 30 mins before histamine and recorded for 10 mins; assay type: functional, organism-based
Mus musculus [22] = assay: Antipruritic effect in mouse assessed as reduction in histamine-induced itching duration at 1 mg/kg ip pretreated 30 mins before histamine and recorded for 10 mins; assay type: functional, organism-based
Mus musculus [23] = assay: Antipruritic effect in mouse assessed as reduction in PAR-2-induced itching duration at 1 mg/kg ip pretreated 30 mins before histamine and recorded for 10 mins; assay type: functional, organism-based
[24] = Toxicity in mouse assessed as sedative effect by measuring reduction in locomotion at 50 mg/kg ip; assay type: organism-based; settings: in vivo
Mus musculus [25] = assay: Antihistamine effect in mouse assessed as Inhibition of histamine-induced increase vascular leakage in skin tissue at 1 mg/kg, ip pretreated 30 mins before Evans blue injection followed by injected with histamine mouse euthanized and skin excised by Miles assay; assay type: functional, organism-based
Mus musculus [26] = assay: Antipruritic effect in mouse assessed as reduction in histamine-induced itching duration at 5 mg/kg ip pretreated 30 mins before histamine and recorded for 10 mins; assay type: functional, organism-based

SMILES: CCOCCn1c(C2CCN(CCc3ccc(C(C)(C)C(=O)Oc4ccc(C(N)=S)cc4)cc3)CC2)nc2ccccc21
Drug metabolism (Kidney): Dose-Dependent Effect

SMILES: C[C@H]1CN(C2CCC(C#N)(c3ccc(F)cc3)CC2)CC[C@@]1(C(=O)Oc1ccc(-c2cc(=S)ss2)cc1)c1ccccc1 (stereo partly specified)
Drug metabolism (HepG2): Dose-Dependent Effect
Drug metabolism (Kidney): Dose-Dependent Effect

SMILES: C[C@H]1CN(C2CCC(C#N)(c3ccc(F)cc3)CC2)CC[C@@]1(C(=O)Oc1ccc(C(N)=S)cc1)c1ccccc1 (stereo partly specified)
Drug metabolism (Kidney): Dose-Dependent Effect

SMILES: CCOCCn1c(C2CCN(CCc3ccc(C(C)(C)C(=O)Oc4ccc(-c5cc(=S)ss5)cc4)cc3)CC2)nc2ccccc21
Drug metabolism (HepG2): Dose-Dependent Effect
Drug metabolism (Kidney): Dose-Dependent Effect

SMILES: NC(=S)c1ccccc1
inhibition (Mus musculus [11]): Active

SMILES: Oc1ccc(-c2cc(=S)ss2)cc1
inhibition (Mus musculus [12]): Active

SMILES: OCCOCCN1CCN(C(c2ccccc2)c2ccc(Cl)cc2)CC1 (stereo unspecified) [HYDROXYZINE]
Activity (Mus musculus [22]): Active
inhibition (HUVE): Dose-Dependent Effect
IC50 [6]: 4.87 nM
inhibition (Mus musculus [23]): Active
Activity [24]: Toxic
inhibition (Mus musculus [25]): Active
Activity (Mus musculus [26]): Active

Now from value to compound, other results behind:

fold change (FC) [3]: 15
IC50 [6]: 599 nM
concentration at 0.5 h [9]: 36.1 ng/mL
Drug metabolism (Kidney): Dose-Dependent Effect
SMILES: NC(=S)c1ccc(OC(=O)CCC(=O)OCCOCCN2CCN(C(c3ccccc3)c3ccc(Cl)cc3)CC2)cc1 (stereo unspecified)
inhibition (Mus musculus [1]): Active
inhibition (Mus musculus [2]): Active
Activity [4]: Non-Toxic
Activity [5]: Non-Toxic
inhibition (HUVE): Dose-Dependent Effect
inhibition (INH) (Mus musculus [7]): 100%
Activity [8]: Toxic
inhibition (Mus musculus [10]): Active

Drug metabolism (Kidney): Dose-Dependent Effect
SMILES: O=C(COCCN1CCN(C(c2ccccc2)c2ccc(Cl)cc2)CC1)OCCCCCCOc1ccc(-c2cc(=S)ss2)cc1 (racemic)

IC50 [6]: 5.5 nM
Drug metabolism (HepG2): Dose-Dependent Effect
Drug metabolism (Kidney): Dose-Dependent Effect
SMILES: O=C(CCC(=O)Oc1ccc(-c2cc(=S)ss2)cc1)OCCOCCN1CCN(C(c2ccccc2)c2ccc(Cl)cc2)CC1 (racemic)
inhibition (HUVE): Dose-Dependent Effect

IC50 [6]: 7.9 nM
Drug metabolism (Kidney): Dose-Dependent Effect
SMILES: NC(=S)c1ccc(OCCCCCCOC(=O)COCCN2CCN(C(c3ccccc3)c3ccc(Cl)cc3)CC2)cc1 (racemic)
inhibition (HUVE): Dose-Dependent Effect

IC50 [6]: 812 nM
Drug metabolism (HepG2): Dose-Dependent Effect
Drug metabolism (Kidney): Dose-Dependent Effect
fold change (FC) [16]: 3
SMILES: O=C(COCCN1CCN(C(c2ccccc2)c2ccc(Cl)cc2)CC1)OCCOc1ccc(-c2cc(=S)ss2)cc1 (racemic)
inhibition (Mus musculus [13]): Active
inhibition (Mus musculus [14]): Active
inhibition (HUVE): Dose-Dependent Effect
inhibition (Mus musculus [15]): Active

concentration at 0.5 h [17]: 8460 ng/mL
IC50 [6]: 169 nM
SMILES: O=C(O)COCCN1CCN(C(c2ccccc2)c2ccc(Cl)cc2)CC1 (stereo unspecified) [CETIRIZINE]
inhibition (Mus musculus [18]): Active
inhibition (Mus musculus [19]): Active
Activity [5]: Toxic
inhibition (HUVE): Dose-Dependent Effect
Activity (Mus musculus [20]): Active
Activity (Mus musculus [21]): Active
